Measured values as given in ChEMBL document CHEMBL4725396, “Discovery and optimization of pyrazolopyrimidine sulfamates as ATG7 inhibitors” (Bioorg Med Chem, 2020).

How the values were obtained:
NCI-H1650 = experiment: Antiproliferative activity against human H1650 cells assessed as reduction in cell viability after 72 hrs by cell titer glow assay; type: cell-based; conditions: NCI-H1650, 72 h
[1] = target: T1, Ubiquitin-like modifier-activating enzyme ATG7 (Homo sapiens, UniProt O95352); experiment: Inhibition of ATG7 in human 293HEK cells assessed as inhibition of ATG7:ATG8 thioester formation after 8 hrs by Western blot analysis; type: cell-based, HEK293
T1 sequence (O95352 whole entry): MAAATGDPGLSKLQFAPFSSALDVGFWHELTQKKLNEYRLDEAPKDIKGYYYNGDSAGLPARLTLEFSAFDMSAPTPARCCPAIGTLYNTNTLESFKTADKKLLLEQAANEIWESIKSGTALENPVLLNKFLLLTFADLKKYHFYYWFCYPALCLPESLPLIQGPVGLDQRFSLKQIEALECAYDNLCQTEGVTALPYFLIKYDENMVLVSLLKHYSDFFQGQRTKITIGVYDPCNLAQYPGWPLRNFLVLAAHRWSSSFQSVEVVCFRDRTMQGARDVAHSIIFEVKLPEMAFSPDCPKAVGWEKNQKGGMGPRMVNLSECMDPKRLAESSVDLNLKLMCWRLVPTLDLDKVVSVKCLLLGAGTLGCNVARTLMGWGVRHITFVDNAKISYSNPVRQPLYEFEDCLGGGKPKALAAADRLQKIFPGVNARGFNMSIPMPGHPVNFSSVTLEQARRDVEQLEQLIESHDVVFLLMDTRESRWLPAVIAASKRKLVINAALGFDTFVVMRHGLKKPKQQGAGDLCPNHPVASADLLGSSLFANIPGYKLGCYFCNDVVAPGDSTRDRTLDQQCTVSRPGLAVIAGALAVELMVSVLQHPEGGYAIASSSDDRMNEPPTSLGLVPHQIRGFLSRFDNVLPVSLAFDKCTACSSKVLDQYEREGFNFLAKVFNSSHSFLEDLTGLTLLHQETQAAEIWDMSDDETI

[2] = target: T1, Ubiquitin-like modifier-activating enzyme ATG7; experiment: Inhibition of recombinant His-tagged human ATG7 incubated for 105 mins in presence of GST-tagged ATG3 and Flag-tagged Gabarap and measured after 2 hrs by FRET assay relative to control
[3] = […] of autophagy in human H4 cells assessed as decrease in LC3B spot area by immunofluorescence assay; type: functional, cell-based
[4] = target: T1, Ubiquitin-like modifier-activating enzyme ATG7; experiment: Inhibition of ATG7 in human 293HEK cells assessed as inhibition of ATG7:ATG8 thioester formation after 4 hrs by Western blot analysis; type: cell-based, HEK293
SK-OV-3 [5] = experiment: […] of autophagy in human SKOV3 cells assessed as accumulation of NRB1 by immunofluorescence assay; type: functional, cell-based
[6] = Inhibition of SAE (unknown origin)
[7] = Inhibition of NAE (unknown origin)
[8] = Inhibition of UAE (unknown origin)
SK-OV-3 [9] = experiment: […] of autophagy in human SKOV3 cells assessed as accumulation of p62 by immunofluorescence assay; type: functional, cell-based

Compound	EC50 (NCI-H1650)	IC50 [1]	IC50 [2]	IC50 [3]	IC50 [4]	EC50 (SK-OV-3 [5])	IC50 [6]	IC50 [7]	IC50 [8]	EC50 (SK-OV-3 [9])
CSc1nn([C@@H]2O[C@H](COS(N)(=O)=O)[C@@H](O)[C@@H]2F)c2ncnc(N)c12	5.79 µM	0.047 µM	0.041 µM	0.977 µM						
Nc1ncnc2c1c(OCc1ccccc1)nn2[C@@H]1O[C@H](COS(N)(=O)=O)[C@@H](O)[C@H]1O	> 50 µM	1.28 µM	0.264 µM							
Nc1ncnc2c1cnn2[C@@H]1O[C@H](COS(N)(=O)=O)[C@@H](O)[C@H]1O	0.075 µM		0.457 µM							
Nc1ncnc2c1c(OC(F)F)nn2[C@@H]1O[C@H](COS(N)(=O)=O)[C@@H](O)[C@H]1O	10 µM	0.162 µM	0.029 µM	2.3 µM	0.479 µM					
CSc1nn([C@@H]2O[C@H](COS(N)(=O)=O)[C@@H](O)[C@H]2O)c2ncnc(N)c12	1.54 µM	0.083 µM	0.014 µM	1.5 µM	0.431 µM					
Nc1ncnc2c1c(Sc1cn[nH]c1)nn2[C@@H]1O[C@H](COS(N)(=O)=O)[C@@H](O)[C@H]1O	> 50 µM		0.016 µM		1.28 µM					
Nc1ncnc2c1c(Sc1ccc3c(c1)CCC3)nn2[C@H]1C[C@H](O)[C@@H](COS(N)(=O)=O)O1	> 50 µM		0.066 µM	0.71 µM						
Nc1ncnc2c1c(SCc1ccccc1)nn2[C@@H]1O[C@H](COS(N)(=O)=O)[C@@H](O)[C@H]1O	> 50 µM	0.322 µM	0.023 µM		0.604 µM					
CC(C)Sc1nn([C@@H]2O[C@H](COS(N)(=O)=O)[C@@H](O)[C@H]2O)c2ncnc(N)c12	> 50 µM	0.284 µM	0.017 µM	4.23 µM	1.25 µM					
Cc1ccc(Sc2nn([C@H]3C[C@H](O)[C@H](COS(N)(=O)=O)O3)c3ncnc(N)c23)c(F)c1	> 50 µM		0.062 µM	0.659 µM		9.4 µM	> 1 µM	> 1 µM	> 1 µM	3 µM
CSc1nn([C@H]2C[C@H](O)[C@H](COS(N)(=O)=O)O2)c2ncnc(N)c12	> 50 µM		0.124 µM	1.26 µM						
CC(C)Sc1nn([C@H]2C[C@H](O)[C@H](COS(N)(=O)=O)O2)c2ncnc(N)c12	> 50 µM		0.057 µM	1.92 µM	0.468 µM					
CC(C)Oc1nn([C@@H]2O[C@H](COS(N)(=O)=O)[C@@H](O)[C@H]2O)c2ncnc(N)c12	> 50 µM		2.6 µM							
Nc1ncnc2c1c(O)nn2[C@@H]1O[C@H](COS(N)(=O)=O)[C@@H](O)[C@H]1O	> 50 µM		0.084 µM							
CC(C)Sc1nn([C@@H]2O[C@H](COS(N)(=O)=O)[C@@H](O)[C@@H]2F)c2ncnc(N)c12	22.4 µM	0.056 µM	0.02 µM	0.727 µM	0.199 µM					
Nc1ncnc2c1c(Sc1ccc3c(c1)CCC3)nn2[C@H]1C[C@H](O)[C@H](COS(N)(=O)=O)O1	> 50 µM		0.156 µM	0.996 µM						
Nc1ncnc2c1c(Sc1ccccc1)nn2[C@@H]1O[C@H](COS(N)(=O)=O)[C@@H](O)[C@H]1O	> 50 µM	0.201 µM	0.029 µM							
Nc1ncnc2c1c(Sc1cccc(Cl)c1)nn2[C@@H]1O[C@H](COS(N)(=O)=O)[C@@H](O)[C@@H]1F	39.7 µM	0.056 µM	0.031 µM	0.534 µM	0.198 µM					

Compound	EC50 (NCI-H1650)	IC50 [1]	IC50 [2]	IC50 [3]	IC50 [4]	EC50 (SK-OV-3 [5])	IC50 [6]	IC50 [7]	IC50 [8]	EC50 (SK-OV-3 [9])
Cc1ccc(Sc2nn([C@H]3C[C@H](O)[C@@H](COS(N)(=O)=O)O3)c3ncnc(N)c23)c(F)c1	> 50 µM		0.08 µM	0.533 µM						
Nc1ncnc2c1c(OC(F)F)nn2[C@@H]1O[C@H](COS(N)(=O)=O)[C@@H](O)[C@@H]1F	18.3 µM		0.043 µM		0.453 µM					
Nc1ncnc2c1c(CCc1ccccc1)nn2[C@@H]1O[C@H](COS(N)(=O)=O)[C@@H](O)[C@H]1O	> 50 µM		0.351 µM							
CSc1nn([C@@H]2O[C@@H](COS(N)(=O)=O)[C@@H](O)[C@H]2O)c2ncnc(N)c12	> 50 µM		0.325 µM	6 µM	1.28 µM					
CC(C)Sc1nn([C@@H]2O[C@@H](COS(N)(=O)=O)[C@@H](O)[C@H]2O)c2ncnc(N)c12	> 50 µM	0.882 µM	0.129 µM	20.1 µM	0.882 µM					
CC(C)Sc1nn([C@H]2C[C@H](O)[C@@H](COS(N)(=O)=O)O2)c2ncnc(N)c12	> 50 µM	0.15 µM	0.027 µM	1.09 µM	0.438 µM					
COc1nn([C@H]2C[C@H](O)[C@@H](COS(N)(=O)=O)O2)c2ncnc(N)c12	31.5 µM		0.249 µM							
CSc1nn([C@@H]2O[C@@H](COS(N)(=O)=O)[C@@H](O)[C@@H]2F)c2ncnc(N)c12	> 50 µM		0.145 µM	2.53 µM						
COc1nn([C@@H]2O[C@H](COS(N)(=O)=O)[C@@H](O)[C@H]2O)c2ncnc(N)c12	5.94 µM	0.335 µM	0.089 µM	2.6 µM			> 50 µM	> 1 µM	> 1 µM	
Cc1cccc(Sc2nn([C@H]3C[C@H](O)[C@@H](COS(N)(=O)=O)O3)c3ncnc(N)c23)c1	> 50 µM		0.095 µM	1.26 µM	0.422 µM					
Nc1ncnc2c1c(Sc1cccc(Cl)c1)nn2[C@H]1C[C@H](O)[C@H](COS(N)(=O)=O)O1	> 50 µM		0.19 µM	1.37 µM						
COc1nn([C@@H]2O[C@H](COS(N)(=O)=O)[C@@H](O)[C@@H]2F)c2ncnc(N)c12	33.9 µM	0.317 µM	0.177 µM							
Nc1ncnc2c1c(OC(F)F)nn2[C@H]1C[C@H](O)[C@@H](COS(N)(=O)=O)O1	> 50 µM	0.545 µM	0.1 µM	1.77 µM						
CCSc1nn([C@@H]2O[C@H](COS(N)(=O)=O)[C@@H](O)[C@H]2O)c2ncnc(N)c12	15.4 µM	0.16 µM	0.022 µM							
Nc1ncnc2c1c(Sc1cccc(Cl)c1)nn2[C@H]1C[C@H](O)[C@@H](COS(N)(=O)=O)O1	> 50 µM		0.104 µM	1.15 µM	0.499 µM					
Cc1cccc(Sc2nn([C@@H]3O[C@H](COS(N)(=O)=O)[C@@H](O)[C@@H]3F)c3ncnc(N)c23)c1	49.1 µM	0.051 µM		0.483 µM	0.14 µM					
CCOc1nn([C@@H]2O[C@H](COS(N)(=O)=O)[C@@H](O)[C@H]2O)c2ncnc(N)c12	49.4 µM		0.255 µM							
Cc1cccc(Sc2nn([C@@H]3O[C@H](COS(N)(=O)=O)[C@@H](O)[C@H]3O)c3ncnc(N)c23)c1	> 50 µM	0.178 µM	0.018 µM							
